Patent US7629334B1, “Mesoprogrestins (progesterone receptor modulations) as a component of compositions for hormone replacement therapy (HRT)” (Bayer Schering Pharma Aktiengesellschaft, priority 1999, dated 2009)
One block for each compound: values may come before it.

What was measured:
[1] = molecular target: T1, progesterone receptor (PR) (Oryctolagus cuniculus, UniProt P06186); assay: McPhail test, PR agonistic properties in estradiol-primed juvenile rabbits; type: in vivo, rabbit; conditions: for maximum effect, McPhail score: 4 days s.c. treatment, absence of progesterone, 0 = no transformation, 4 = complete transformation
T1 construct: from tissue; host or cells: endometrium of estradiol-primed juvenile rabbits, in vivo
T1 sequence (P06186 1-930): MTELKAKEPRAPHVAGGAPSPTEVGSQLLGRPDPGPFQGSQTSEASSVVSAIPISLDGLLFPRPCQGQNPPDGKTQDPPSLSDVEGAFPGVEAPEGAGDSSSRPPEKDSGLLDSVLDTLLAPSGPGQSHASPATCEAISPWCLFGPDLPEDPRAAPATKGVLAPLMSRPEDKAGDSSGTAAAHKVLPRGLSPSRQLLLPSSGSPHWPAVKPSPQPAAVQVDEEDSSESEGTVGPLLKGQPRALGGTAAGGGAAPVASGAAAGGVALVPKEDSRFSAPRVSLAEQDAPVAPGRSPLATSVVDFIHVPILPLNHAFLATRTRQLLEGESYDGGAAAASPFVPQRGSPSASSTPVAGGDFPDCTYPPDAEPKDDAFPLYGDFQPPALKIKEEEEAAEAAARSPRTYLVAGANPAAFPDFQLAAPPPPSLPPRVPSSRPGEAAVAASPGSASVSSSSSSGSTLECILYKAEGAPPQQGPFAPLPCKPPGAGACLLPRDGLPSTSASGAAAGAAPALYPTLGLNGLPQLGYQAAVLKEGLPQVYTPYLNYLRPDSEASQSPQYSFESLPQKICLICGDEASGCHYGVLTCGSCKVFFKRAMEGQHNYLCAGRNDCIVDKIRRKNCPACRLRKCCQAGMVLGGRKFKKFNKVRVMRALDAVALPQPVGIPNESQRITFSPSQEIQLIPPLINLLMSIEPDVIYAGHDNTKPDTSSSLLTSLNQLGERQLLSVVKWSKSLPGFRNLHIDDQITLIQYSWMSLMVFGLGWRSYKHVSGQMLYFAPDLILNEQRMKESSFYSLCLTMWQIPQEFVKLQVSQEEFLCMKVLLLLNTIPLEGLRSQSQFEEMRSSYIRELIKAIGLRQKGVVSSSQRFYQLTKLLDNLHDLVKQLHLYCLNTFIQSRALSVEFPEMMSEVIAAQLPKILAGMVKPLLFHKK
Method: In the classical bioassay, the McPhail test, assessing progestagenic and antiprogestagenic effects in rabbits (Selye H., Textbook of Endocrinology, 1947, pp. 345-346), progesterone produces a maximum McPhail score of 4 (by definition). […] The PR antagonistic and agonistic properties of mesoprogestins were assessed in estrogen-primed rabbits in the McPhail test according to Selye (Textbook of Endocrinology, 1947, pp. 345-346).

[2] = tested on: pregnant guinea pigs; assay: Abortifacient (labor inducing) activity in pregnant guinea pigs; type: in vivo, guinea pig; conditions: for abortifacient activity ED50, guinea pig: treatment day 43-44 of pregnancy, autopsy day 50; for maximal abortion rate: up to 100 mg/kg/day
Method: In the guinea pig model which allows a good prediction of the effects in humans with respect to the abortifacient activity (Elger W, Beier S., Chwalisz K, Fähnrich M, Hasan S H, Henderson D, Neef G, Rohde R (1986): Studies on the mechanism of action of progesterone antagonists. J Steroid Biochem 25: 835-845) the mesoprogestins J 867, J 912, J 956, J 1042 lead up to 100 mg/kg/day to a maximal abortion rate of 20%.
(§1) The guinea pig is considered as relevant model of human gestation and parturition (Elger W, Fähnrich M, Beier S, Quing S S, Chwalisz K (1987). Endometrial and myometrial effects of progesterone antagonists in pregnant guinea pigs. Am J Obstet Gynecol 157: 1065-1074; Elger W, Neef G, Beier S, Fähnrich M, Gründel M, Heermann J, Malmendier A, Laurent D, Puri C P, Singh M M, Hasan S H, Becker H (1992). Evaluation of antifertility activities of antigestagens in animal model. In: Puri C P and Van Look P F A (eds), Current Concepts in Fertility Regulation and Reproduction. Wiley Eastern Limited, New Delhi, pp. 303-328; Elger W, Faehnrich M, Beier S, Qing S S, Chwalisz K (1986). Mechanism of action of progesterone antagonists in pregnant guinea pigs. Contraception 6: 47-62; Elger W, Chwalisz K, Faehnrich M, Hasan S H, Laurent D, Beier S, Ottow E, Neef G, Garfield R E (1990). Studies on labor-conditioning and labor-inducing effects of antiprogesterones in animal model. In: Garfield R E (eds), Norwell, pp. 153-175.) The mechanism of abortion of antiprogestins in this species is the initiation of labor and finally the expulsion of the conceptus. Abortifacient effects in the rat during very early pregnancy reflect inhibitory effects on nidation rather than initiation of uterine contractions. Studies in the rat model lead to “overestimation” of the potential of antiprogestins to terminate pregnancy in humans. Conversely, in the guinea pig model, irrespective of the antiprogestin doses, there were high rates of ongoing pregnancies similar to the situation in humans (Elger et al., Current Concepts in Fertility Regulation and Reproduction cited above). Furthermore, in both humans and guinea pigs, there is a strong synergism between antiprogestins and prostaglandins with respect the induction of labor (see the articles cited above and Elger W, Beier S (1983). Prostaglandine und Antigestagene für den Schwangerschaftsabbruch (Prostaglandins and antigestagens for pregnancy termination). German Patent DE 3337450 12; Van Look P, Bygdeman M (1989). Antiprogestational steroids: a new dimension in human fertility regulation. Oxford reviews of reproductive medicine 11: 2-60).
Pregnant guinea pigs were treated on days 43 and 44 of pregnancy and observed until day 50 of gestation. For the effects of various treatments see table 1 and FIG. 2. It is typical for this model that expulsions occur with a delay of several days after treatment. It can be seen that Mesoprogestins have a much reduced abortifacient activity compared to RU486. […] The differences with respect to abortifacient activity seem qualitative ones. It is not possible to overcome the low abortifacient activity of a Mesoprogestin by the use of a higher dose.

[3] = tested on: pregnant rats; assay: Abortifacient activity in pregnant rats; type: in vivo, rat; conditions: treatment days 5-7 of pregnancy, autopsy day 9; * SAS, probit procedure
Excerpt: as §1

[4] = dose range 0.003-100 mg/rabbit s.c.

Structure (SMILES): COC[C@]1(OC)CC[C@H]2[C@@H]3CCC4=CC(=O)CCC4=C3[C@@H](c3ccc(/C=N/O)cc3)C[C@@]21C [Compound J867, 4-[17βMethoxy-17α-(methoxymethyl)-3-oxoestra-4,9-dien-11β-yl]benzaldehyd-(1E)-oxim]
progestagenic effect compared with maximum effect of progesterone [1, 4]: Neither mesoprogestin tested (J 1042, J867, J956) reached the maximum effect of progesterone
abortifacient activity ED50, guinea pig [2]: >100 mg/animal/day, s.c.
maximal abortion rate [2]: 20%
abortifacient activity ED50, Rat [3]: 0.65* mg/animal/day, s.c.

Structure (SMILES): COCC1(O)CCC2C3CCC4=CC(=O)CCC4=C3C(c3ccc(C=NO)cc3)CC21C (stereo not drawn) [Compound J912, 4-[17β-Hydroxy-17α-(methoxymethyl)-3-oxoestra-4,9-dien-11β-yl]benzaldehyd-(1E)-oxim]
abortifacient activity ED50, guinea pig [2]: >100 mg/animal/day, s.c.
maximal abortion rate [2]: 20%
abortifacient activity ED50, Rat [3]: 0.36 mg/animal/day, s.c.

maximum effect, McPhail score [1]: 1.5
shape of dose response [1, 4]: biphasic response
Structure (SMILES): CCNC(=O)O/N=C/c1ccc([C@H]2C[C@@]3(C)[C@@H](CC[C@]3(COC)OC)[C@@H]3CCC4=CC(=O)CCC4=C32)cc1 [Compound J956, 4-[17β-Methoxy-17α-(methoxymethyl)-3-oxoestra-4,9-dien-11β-yl]benzaldehyd-(1E)-[O-(ethylamino)carbonyl]oxim]
progestagenic effect compared with maximum effect of progesterone [1, 4]: Neither mesoprogestin tested (J 1042, J867, J956) reached the maximum effect of progesterone
abortifacient activity ED50, guinea pig [2]: 20 mg/animal/day, s.c.
maximal abortion rate [2]: 20%
abortifacient activity ED50, Rat [3]: 0.64* mg/animal/day, s.c.

Structure (SMILES): CCSC(=O)O/N=C/c1ccc([C@H]2C[C@@]3(C)[C@@H](CC[C@]3(COC)OC)[C@@H]3CCC4=CC(=O)CCC4=C32)cc1 [Compound J1042, 4-[17β-Methoxy-17α-(methoxymethyl)-3-oxoestra-4,9-dien-11β-yl]benzaldehyd-(1E)-[O-(ethylthio)carbonyl]oxim]
progestagenic effect compared with maximum effect of progesterone [1, 4]: Neither mesoprogestin tested (J 1042, J867, J956) reached the maximum effect of progesterone
abortifacient activity ED50, guinea pig [2]: >>100 mg/animal/day, s.c.
maximal abortion rate [2]: 20%
abortifacient activity ED50, Rat [3]: >10 mg/animal/day, s.c.

Structure (SMILES): CN(C)c1ccc([C@H]2C[C@]3(C)[C@@H](CC[C@]3(O)CCCO)[C@@H]3CCC4=CC(=O)CCC4=C32)cc1 [Onapristone, onapristone, reference compound]
abortifacient activity ED50, guinea pig [2]: ca 3 mg/animal/day, s.c.
abortifacient activity ED50, Rat [3]: 1.71* mg/animal/day, s.c.

dose inducing endometrial transformation ([1]; 4 days s.c.): ≥ 0.1 mg
maximum effect, McPhail score [1]: ~4
Structure (SMILES): CC(=O)[C@H]1CC[C@H]2[C@@H]3CCC4=CC(=O)CC[C@]4(C)[C@H]3CC[C@]12C [Progesterone, progesterone]

Structure (SMILES): CC#C[C@]1(O)CC[C@H]2[C@@H]3CCC4=CC(=O)CCC4=C3[C@@H](c3ccc(N(C)C)cc3)C[C@@]21C [RU 486, reference compound]
abortifacient activity ED50, guinea pig [2]: 3.8 mg/animal/day, s.c.
abortifacient activity ED50, Rat [3]: 0.98* mg/animal/day, s.c.
